Results published in article PMC8978638 (RSC Advances, 2021).

Tests used:
[1] = DPPH free radical scavenging; settings: % scavenging of DPPH at 1 μg μL^−1 concentration
human AChE = human AChE (Homo sapiens, UniProt P22303); assay: Enzyme inhibition assay; type: biochemical
human BChE = human BChE (Homo sapiens, UniProt P06276); assay: Enzyme inhibition assay; type: biochemical
human BChE, sequence (P06276 29-602): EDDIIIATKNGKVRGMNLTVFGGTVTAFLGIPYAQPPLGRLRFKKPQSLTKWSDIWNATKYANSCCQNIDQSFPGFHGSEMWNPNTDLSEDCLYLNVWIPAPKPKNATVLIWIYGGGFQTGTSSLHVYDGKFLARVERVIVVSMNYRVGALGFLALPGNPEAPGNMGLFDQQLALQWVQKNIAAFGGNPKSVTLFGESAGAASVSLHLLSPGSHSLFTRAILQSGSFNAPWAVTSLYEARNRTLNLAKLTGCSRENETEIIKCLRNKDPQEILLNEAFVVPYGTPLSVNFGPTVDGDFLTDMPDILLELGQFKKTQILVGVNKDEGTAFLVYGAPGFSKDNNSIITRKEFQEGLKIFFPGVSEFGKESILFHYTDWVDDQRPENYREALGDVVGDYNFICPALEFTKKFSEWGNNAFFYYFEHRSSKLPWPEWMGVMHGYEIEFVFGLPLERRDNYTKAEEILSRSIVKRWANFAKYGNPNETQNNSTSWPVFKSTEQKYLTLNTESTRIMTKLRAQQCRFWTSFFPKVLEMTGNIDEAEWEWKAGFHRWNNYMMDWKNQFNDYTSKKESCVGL

human AChE, sequence (P22303 32-614): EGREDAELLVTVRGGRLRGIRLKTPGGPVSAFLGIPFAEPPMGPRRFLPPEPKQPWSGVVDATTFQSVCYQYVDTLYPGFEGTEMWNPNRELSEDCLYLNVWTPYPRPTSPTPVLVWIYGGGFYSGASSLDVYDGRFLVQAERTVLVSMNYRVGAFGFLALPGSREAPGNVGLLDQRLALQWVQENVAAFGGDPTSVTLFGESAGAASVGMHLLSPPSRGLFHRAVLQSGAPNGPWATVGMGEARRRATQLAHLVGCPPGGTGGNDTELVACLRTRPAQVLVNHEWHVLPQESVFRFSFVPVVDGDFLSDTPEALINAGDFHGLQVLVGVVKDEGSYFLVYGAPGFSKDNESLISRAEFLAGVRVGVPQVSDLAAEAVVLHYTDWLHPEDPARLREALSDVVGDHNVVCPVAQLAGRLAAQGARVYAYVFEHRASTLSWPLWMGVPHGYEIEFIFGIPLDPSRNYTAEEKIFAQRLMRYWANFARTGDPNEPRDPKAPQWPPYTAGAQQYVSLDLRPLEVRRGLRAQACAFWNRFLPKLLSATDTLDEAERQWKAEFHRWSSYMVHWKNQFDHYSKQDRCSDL

| Structure (SMILES) | Scavenging (%) [1] [%] | IC50 (human AChE) [nM] | IC50 (human BChE) [nM] | Scavenging (%) ([1]; listed as 4) |
| --- | --- | --- | --- | --- |
| O=C1O[C@H]([C@@H](O)CO)C(O)=C1O [Ascorbic acid, ascorbic acid, reference compound] | 96.39 |  |  |  |
| COC(=O)c1ccccc1NC(=O)c1ccccc1 [Compound 03, methyl-2-benzamidobenzoate] | 37.17 | 250 ± 60 | 210 ± 60 |  |
| O=C(Nc1ccccc1C(=O)N/N=C/c1ccc(O)cc1O)c1ccccc1 [Compound 10, (E)-N-(2-(2-(2,4-Dihydroxybenzylidene)hydrazinecarbonyl)phenyl)benzamide] | 82.55 | 18500 ± 190 | 2150 ± 260 |  |
| CN(C)c1ccc(/C=N/NC(=O)c2ccccc2NC(=O)c2ccccc2)cc1 [Compound 07, (E)-N-(2-(2-(4-(Dimethylamino)benzylidene)hydrazinecarbonyl)phenyl)benzamide] | 43.97 | 25200 ± 210 |  |  |
| O=C(Nc1ccccc1C(=O)N/N=C/c1ccccc1O)c1ccccc1 [Compound 11, (E)-N-(2-(2-(2-Hydroxybenzylidene)hydrazinecarbonyl)phenyl)benzamide] | 67.54 | 1140 ± 350 | 120 ± 90 |  |
| O=C(Nc1ccccc1C(=O)N/N=C/c1ccc(Br)cc1)c1ccccc1 [Compound 06, (E)-N-(2-(2-(4-Bromobenzylidene)hydrazinecarbonyl)phenyl)benzamide] | 15.88 | 90 ± 50 | 140 ± 50 |  |
| O=C(Nc1ccccc1C(=O)N/N=C/c1ccccc1)c1ccccc1 [Compound 13, (E)-N-(2-(2-Benzylidenehydrazinecarbonyl)phenyl)benzamide] | 30.21 | 110 ± 30 | 100 ± 60 |  |
| O=C(Nc1ccccc1C(=O)N/N=C/c1ccc(Cl)cc1)c1ccccc1 [Compound 05, (E)-N-(2-(2-(4-Chlorobenzylidene)hydrazinecarbonyl)phenyl) benzamide] | 35.37 | 1030 ± 120 | 1240 ± 120 |  |
| CC(C)c1ccc(/C=N/NC(=O)c2ccccc2NC(=O)c2ccccc2)cc1 [Compound 09, (E)-N-(2-(2-(4-Isopropylbenzylidene)hydrazinecarbonyl)phenyl)benzamide] | 33.73 | 23100 ± 250 |  |  |
| COc1ccc(/C=N/NC(=O)c2ccccc2NC(=O)c2ccccc2)cc1 [Compound 12, (E)-N-(2-(2-(4-Methoxybenzylidene)hydrazinecarbonyl)phenyl)benzamide] | 30.09 | 20400 ± 230 | 18340 ± 140 |  |
| O=C(Nc1ccccc1C(=O)N/N=C/c1ccc([N+](=O)[O-])cc1)c1ccccc1 [Compound 08, (E)-N-(2-(2-(4-Nitrobenzylidene)hydrazinecarbonyl)phenyl)benzamide] | 20.20 | 14800 ± 290 | 190 ± 120 |  |
| NNC(=O)c1ccccc1NC(=O)c1ccccc1 [Compound 04, N-(2-(hydrazinecarbonyl)phenyl)benzamide] | 95.06 | 27650 ± 140 | 170 ± 120 | 95.07 |
